Source: PubChem BioAssay (NCI)
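Exposure lasted 48 hours, with cells grown in 96-well plates and compounds tested at five concentrations. GI50 = concentration required for 50% inhibition of growth. TGI: concentration producing complete growth inhibition.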

Assays:
Assay in all cases: growth of human tumour cells (NCI), 48 h
OVCAR-3 ovarian = system: OVCAR-3 ovarian
PC-3 prostate = system: PC-3 prostate
SN12C renal = system: SN12C renal
LOX IMVI melanoma = system: LOX IMVI melanoma
CAKI-1 renal = system: CAKI-1 renal
SK-OV-3 ovarian = system: SK-OV-3 ovarian
786-0 renal = system: 786-0 renal
RPMI-8226 leukemia = system: RPMI-8226 leukemia
NCI-H226 lung = system: NCI-H226 lung
KM12 colon = system: KM12 colon
OVCAR-4 ovarian = system: OVCAR-4 ovarian
UO-31 renal = system: UO-31 renal
RXF 393 renal = system: RXF 393 renal
HCT-116 colon = system: HCT-116 colon
M14 melanoma = system: M14 melanoma
COLO 205 colon = system: COLO 205 colon
SF-295 CNS = system: SF-295 CNS
TK-10 renal = system: TK-10 renal
NCI-H460 lung = system: NCI-H460 lung
HS 578T breast = system: HS 578T breast
HT29 colon = system: HT29 colon
NCI/ADR-RES ovarian = system: NCI/ADR-RES ovarian
MDA-MB-435 = system: MDA-MB-435
SK-MEL-2 melanoma = system: SK-MEL-2 melanoma
BT-549 breast = system: BT-549 breast
A549 NSCLC = system: A549 NSCLC
A498 renal = system: A498 renal
ACHN renal = system: ACHN renal
UACC-62 melanoma = system: UACC-62 melanoma
HCC-2998 colon = system: HCC-2998 colon
DU-145 prostate = system: DU-145 prostate
NCI-H23 lung = system: NCI-H23 lung
MALME-3M melanoma = system: MALME-3M melanoma
T-47D breast = system: T-47D breast
SK-MEL-28 melanoma = system: SK-MEL-28 melanoma
SNB-75 CNS = system: SNB-75 CNS
SF-268 CNS = system: SF-268 CNS
CCRF-CEM leukemia = system: CCRF-CEM leukemia
K-562 leukemia = system: K-562 leukemia
HOP-92 NSCLC = system: HOP-92 NSCLC
MOLT-4 leukemia = system: MOLT-4 leukemia
MCF7 breast = system: MCF7 breast
SK-MEL-5 melanoma = system: SK-MEL-5 melanoma
SF-539 CNS = system: SF-539 CNS
OVCAR-8 ovarian = system: OVCAR-8 ovarian
SR leukemia = system: SR leukemia
OVCAR-5 ovarian = system: OVCAR-5 ovarian
MDA-MB-468 breast = system: MDA-MB-468 breast
IGROV1 ovarian = system: IGROV1 ovarian
HL-60(TB) leukemia = system: HL-60(TB) leukemia
UACC-257 melanoma = system: UACC-257 melanoma
SW-620 colon = system: SW-620 colon
SNB-19 CNS = system: SNB-19 CNS
NCI-H522 lung = system: NCI-H522 lung
U251 CNS = system: U251 CNS
HOP-62 NSCLC = system: HOP-62 NSCLC
MDA-MB-231 breast = system: MDA-MB-231 breast
HCT-15 colon = system: HCT-15 colon
EKVX NSCLC = system: EKVX NSCLC

With `N#Cc1c(NC(=O)c2ccc(C(F)(F)F)cc2C(F)(F)F)sc2c1CCC(=O)C2` the GI50 (OVCAR-3 ovarian) was 360 nM, the TGI (OVCAR-3 ovarian) was 1370 nM and the GI50 (PC-3 prostate) was 249 nM. For the same compound, the TGI (PC-3 prostate) was 2360 nM, the GI50 (SN12C renal) was 675 nM and the TGI (SN12C renal) was 11100 nM. The GI50 (LOX IMVI melanoma) was 369 nM, the TGI (LOX IMVI melanoma) was 2170 nM and the GI50 (CAKI-1 renal) was 610 nM. The TGI (CAKI-1 renal) was 2120 nM, the GI50 (SK-OV-3 ovarian) was 2660 nM and the TGI (SK-OV-3 ovarian) was 7230 nM. It also gave a GI50 (786-0 renal) of 442 nM, a TGI (786-0 renal) of 4080 nM and a GI50 (RPMI-8226 leukemia) of 209 nM. It also gave a TGI (RPMI-8226 leukemia) of 4110 nM, a GI50 (NCI-H226 lung) of 2240 nM and a TGI (NCI-H226 lung) of 6810 nM. For the same compound, the GI50 (KM12 colon) was 468 nM, the TGI (KM12 colon) was 2330 nM and the GI50 (OVCAR-4 ovarian) was 507 nM. It also gave a TGI (OVCAR-4 ovarian) of 1880 nM, a GI50 (UO-31 renal) of 339 nM and a TGI (UO-31 renal) of 1310 nM. For the same compound, the GI50 (RXF 393 renal) was 293 nM, the TGI (RXF 393 renal) was 1270 nM and the GI50 (HCT-116 colon) was 345 nM. The TGI (HCT-116 colon) was 6640 nM, the GI50 (M14 melanoma) was 901 nM and the TGI (M14 melanoma) was 2840 nM. It also gave a GI50 (COLO 205 colon) of 1310 nM, a TGI (COLO 205 colon) of 2720 nM and a GI50 (SF-295 CNS) of 1990 nM. For the same compound, the TGI (SF-295 CNS) was 6400 nM, the GI50 (TK-10 renal) was 367 nM and the TGI (TK-10 renal) was 2190 nM. It also gave a GI50 (NCI-H460 lung) of 3130 nM, a TGI (NCI-H460 lung) of 10900 nM and a GI50 (HS 578T breast) of 999 nM. It also gave a TGI (HS 578T breast) of 8550 nM, a GI50 (HT29 colon) of 542 nM and a TGI (HT29 colon) of 2950 nM. It also gave a GI50 (NCI/ADR-RES ovarian) of 623 nM, a TGI (NCI/ADR-RES ovarian) of 7140 nM and a GI50 (MDA-MB-435) of 888 nM. The TGI (MDA-MB-435) was 2980 nM, the GI50 (SK-MEL-2 melanoma) was 2230 nM and the TGI (SK-MEL-2 melanoma) was 4550 nM. For the same compound, the GI50 (BT-549 breast) was 309 nM, the TGI (BT-549 breast) was 1110 nM and the GI50 (A549 NSCLC) was 3290 nM. It also gave a TGI (A549 NSCLC) of 30000 nM, a GI50 (A498 renal) of 13000 nM and a TGI (A498 renal) of 28100 nM. For the same compound, the GI50 (ACHN renal) was 331 nM, the TGI (ACHN renal) was 1180 nM and the GI50 (UACC-62 melanoma) was 501 nM. It also gave a TGI (UACC-62 melanoma) of 1870 nM, a GI50 (HCC-2998 colon) of 1660 nM and a TGI (HCC-2998 colon) of 5600 nM. It also gave a GI50 (DU-145 prostate) of 3720 nM, a TGI (DU-145 prostate) of 14900 nM and a GI50 (NCI-H23 lung) of 431 nM. For the same compound, the TGI (NCI-H23 lung) was 2280 nM, the GI50 (MALME-3M melanoma) was 369 nM and the TGI (MALME-3M melanoma) was 1450 nM. For the same compound, the GI50 (T-47D breast) was 358 nM, the TGI (T-47D breast) was 2960 nM and the GI50 (SK-MEL-28 melanoma) was 613 nM. It also gave a TGI (SK-MEL-28 melanoma) of 1900 nM, a GI50 (SNB-75 CNS) of 1460 nM and a TGI (SNB-75 CNS) of 4900 nM. For the same compound, the GI50 (SF-268 CNS) was 2820 nM, the TGI (SF-268 CNS) was 13200 nM and the GI50 (CCRF-CEM leukemia) was 308 nM. It also gave a TGI (CCRF-CEM leukemia) of 3200 nM, a GI50 (K-562 leukemia) of 275 nM and a TGI (K-562 leukemia) of over 40200 nM. For the same compound, the GI50 (HOP-92 NSCLC) was 234 nM, the TGI (HOP-92 NSCLC) was 770 nM and the GI50 (MOLT-4 leukemia) was 386 nM. The TGI (MOLT-4 leukemia) was 7210 nM, the GI50 (MCF7 breast) was 442 nM and the TGI (MCF7 breast) was 10800 nM. The GI50 (SK-MEL-5 melanoma) was 804 nM, the TGI (SK-MEL-5 melanoma) was 2080 nM and the GI50 (SF-539 CNS) was 316 nM. For the same compound, the TGI (SF-539 CNS) was 1150 nM, the GI50 (OVCAR-8 ovarian) was 569 nM and the TGI (OVCAR-8 ovarian) was 16500 nM. For the same compound, the GI50 (SR leukemia) was 303 nM, the TGI (SR leukemia) was over 100000 nM and the GI50 (OVCAR-5 ovarian) was 1040 nM. The TGI (OVCAR-5 ovarian) was 2670 nM, the GI50 (MDA-MB-468 breast) was 565 nM and the TGI (MDA-MB-468 breast) was 1820 nM. The GI50 (IGROV1 ovarian) was 894 nM, the TGI (IGROV1 ovarian) was 5520 nM and the GI50 (HL-60(TB) leukemia) was 235 nM. For the same compound, the TGI (HL-60(TB) leukemia) was 3270 nM, the GI50 (UACC-257 melanoma) was 1500 nM and the TGI (UACC-257 melanoma) was 3630 nM. The GI50 (SW-620 colon) was 363 nM, the TGI (SW-620 colon) was 1610 nM and the GI50 (SNB-19 CNS) was 3690 nM. The TGI (SNB-19 CNS) was 14100 nM, the GI50 (NCI-H522 lung) was 169 nM and the TGI (NCI-H522 lung) was 686 nM. For the same compound, the GI50 (U251 CNS) was 800 nM, the TGI (U251 CNS) was 13200 nM and the GI50 (HOP-62 NSCLC) was 3450 nM. It also gave a TGI (HOP-62 NSCLC) of 14000 nM, a GI50 (MDA-MB-231 breast) of 769 nM and a TGI (MDA-MB-231 breast) of 2390 nM. The GI50 (HCT-15 colon) was 335 nM, the TGI (HCT-15 colon) was 1390 nM and the GI50 (EKVX NSCLC) was 1650 nM. For the same compound, the TGI (EKVX NSCLC) was 7840 nM.
